Experiments:
Assay in all cases: Competitive isoTOP-ABPP, cell lysates
Assay type in all cases: binding
[1] = target: T1, DDX59 C453 (Q5T1V6) (Homo sapiens, UniProt Q5T1V6); details: for isoTOP-ABPP reactivity profile ratio, Q5T1V6_C453: 500 μm; for isoTOP-ABPP ratio, Q5T1V6_C453: 500 μM, invitro
T1 sequence (Q5T1V6 1-619): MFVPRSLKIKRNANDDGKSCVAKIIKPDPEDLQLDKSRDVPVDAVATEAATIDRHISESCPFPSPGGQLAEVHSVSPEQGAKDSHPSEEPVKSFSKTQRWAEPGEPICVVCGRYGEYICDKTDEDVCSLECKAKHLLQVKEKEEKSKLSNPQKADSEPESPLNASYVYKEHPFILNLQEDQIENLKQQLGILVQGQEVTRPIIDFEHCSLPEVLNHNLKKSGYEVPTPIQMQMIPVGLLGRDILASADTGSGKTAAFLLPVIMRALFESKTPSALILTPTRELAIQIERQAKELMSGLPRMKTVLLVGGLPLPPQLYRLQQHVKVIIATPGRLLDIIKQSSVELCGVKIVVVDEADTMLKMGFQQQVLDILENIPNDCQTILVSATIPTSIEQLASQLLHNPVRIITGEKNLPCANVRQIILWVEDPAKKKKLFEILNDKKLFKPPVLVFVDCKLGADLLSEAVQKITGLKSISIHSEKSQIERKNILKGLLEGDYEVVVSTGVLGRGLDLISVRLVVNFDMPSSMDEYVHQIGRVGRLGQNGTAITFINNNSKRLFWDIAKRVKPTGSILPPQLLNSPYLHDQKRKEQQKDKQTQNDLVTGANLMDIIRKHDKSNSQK

[2] = target: T2, POU2F2 C346 (P09086) (Homo sapiens, UniProt P09086); details: for isoTOP-ABPP ratio, P09086_C346: 500 μM, invitro, ramos
T2 sequence (P09086 1-479): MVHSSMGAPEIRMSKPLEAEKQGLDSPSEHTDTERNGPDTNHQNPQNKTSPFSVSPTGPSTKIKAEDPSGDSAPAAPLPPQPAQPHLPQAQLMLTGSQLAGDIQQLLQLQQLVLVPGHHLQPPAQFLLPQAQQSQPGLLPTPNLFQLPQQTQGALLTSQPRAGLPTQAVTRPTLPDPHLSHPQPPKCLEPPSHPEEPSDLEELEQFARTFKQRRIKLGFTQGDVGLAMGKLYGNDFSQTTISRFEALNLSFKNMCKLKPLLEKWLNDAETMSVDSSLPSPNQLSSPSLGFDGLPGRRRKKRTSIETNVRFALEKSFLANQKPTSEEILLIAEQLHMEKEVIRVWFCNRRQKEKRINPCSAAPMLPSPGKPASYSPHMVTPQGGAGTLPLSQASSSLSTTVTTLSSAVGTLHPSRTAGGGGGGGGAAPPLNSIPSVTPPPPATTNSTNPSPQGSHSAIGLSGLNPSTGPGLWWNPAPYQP

[3] = target: USP34 C741 (Q70CQ2) (Homo sapiens, UniProt Q70CQ2)
[4] = target: EP300 C1738 (Q09472) (Homo sapiens, UniProt Q09472); details: for isoTOP-ABPP reactivity profile ratio, Q09472_C1738: 500 μm, in-vitro_ramos_231
Sequence of EP300 C1738 (Q09472) (Q09472 whole entry): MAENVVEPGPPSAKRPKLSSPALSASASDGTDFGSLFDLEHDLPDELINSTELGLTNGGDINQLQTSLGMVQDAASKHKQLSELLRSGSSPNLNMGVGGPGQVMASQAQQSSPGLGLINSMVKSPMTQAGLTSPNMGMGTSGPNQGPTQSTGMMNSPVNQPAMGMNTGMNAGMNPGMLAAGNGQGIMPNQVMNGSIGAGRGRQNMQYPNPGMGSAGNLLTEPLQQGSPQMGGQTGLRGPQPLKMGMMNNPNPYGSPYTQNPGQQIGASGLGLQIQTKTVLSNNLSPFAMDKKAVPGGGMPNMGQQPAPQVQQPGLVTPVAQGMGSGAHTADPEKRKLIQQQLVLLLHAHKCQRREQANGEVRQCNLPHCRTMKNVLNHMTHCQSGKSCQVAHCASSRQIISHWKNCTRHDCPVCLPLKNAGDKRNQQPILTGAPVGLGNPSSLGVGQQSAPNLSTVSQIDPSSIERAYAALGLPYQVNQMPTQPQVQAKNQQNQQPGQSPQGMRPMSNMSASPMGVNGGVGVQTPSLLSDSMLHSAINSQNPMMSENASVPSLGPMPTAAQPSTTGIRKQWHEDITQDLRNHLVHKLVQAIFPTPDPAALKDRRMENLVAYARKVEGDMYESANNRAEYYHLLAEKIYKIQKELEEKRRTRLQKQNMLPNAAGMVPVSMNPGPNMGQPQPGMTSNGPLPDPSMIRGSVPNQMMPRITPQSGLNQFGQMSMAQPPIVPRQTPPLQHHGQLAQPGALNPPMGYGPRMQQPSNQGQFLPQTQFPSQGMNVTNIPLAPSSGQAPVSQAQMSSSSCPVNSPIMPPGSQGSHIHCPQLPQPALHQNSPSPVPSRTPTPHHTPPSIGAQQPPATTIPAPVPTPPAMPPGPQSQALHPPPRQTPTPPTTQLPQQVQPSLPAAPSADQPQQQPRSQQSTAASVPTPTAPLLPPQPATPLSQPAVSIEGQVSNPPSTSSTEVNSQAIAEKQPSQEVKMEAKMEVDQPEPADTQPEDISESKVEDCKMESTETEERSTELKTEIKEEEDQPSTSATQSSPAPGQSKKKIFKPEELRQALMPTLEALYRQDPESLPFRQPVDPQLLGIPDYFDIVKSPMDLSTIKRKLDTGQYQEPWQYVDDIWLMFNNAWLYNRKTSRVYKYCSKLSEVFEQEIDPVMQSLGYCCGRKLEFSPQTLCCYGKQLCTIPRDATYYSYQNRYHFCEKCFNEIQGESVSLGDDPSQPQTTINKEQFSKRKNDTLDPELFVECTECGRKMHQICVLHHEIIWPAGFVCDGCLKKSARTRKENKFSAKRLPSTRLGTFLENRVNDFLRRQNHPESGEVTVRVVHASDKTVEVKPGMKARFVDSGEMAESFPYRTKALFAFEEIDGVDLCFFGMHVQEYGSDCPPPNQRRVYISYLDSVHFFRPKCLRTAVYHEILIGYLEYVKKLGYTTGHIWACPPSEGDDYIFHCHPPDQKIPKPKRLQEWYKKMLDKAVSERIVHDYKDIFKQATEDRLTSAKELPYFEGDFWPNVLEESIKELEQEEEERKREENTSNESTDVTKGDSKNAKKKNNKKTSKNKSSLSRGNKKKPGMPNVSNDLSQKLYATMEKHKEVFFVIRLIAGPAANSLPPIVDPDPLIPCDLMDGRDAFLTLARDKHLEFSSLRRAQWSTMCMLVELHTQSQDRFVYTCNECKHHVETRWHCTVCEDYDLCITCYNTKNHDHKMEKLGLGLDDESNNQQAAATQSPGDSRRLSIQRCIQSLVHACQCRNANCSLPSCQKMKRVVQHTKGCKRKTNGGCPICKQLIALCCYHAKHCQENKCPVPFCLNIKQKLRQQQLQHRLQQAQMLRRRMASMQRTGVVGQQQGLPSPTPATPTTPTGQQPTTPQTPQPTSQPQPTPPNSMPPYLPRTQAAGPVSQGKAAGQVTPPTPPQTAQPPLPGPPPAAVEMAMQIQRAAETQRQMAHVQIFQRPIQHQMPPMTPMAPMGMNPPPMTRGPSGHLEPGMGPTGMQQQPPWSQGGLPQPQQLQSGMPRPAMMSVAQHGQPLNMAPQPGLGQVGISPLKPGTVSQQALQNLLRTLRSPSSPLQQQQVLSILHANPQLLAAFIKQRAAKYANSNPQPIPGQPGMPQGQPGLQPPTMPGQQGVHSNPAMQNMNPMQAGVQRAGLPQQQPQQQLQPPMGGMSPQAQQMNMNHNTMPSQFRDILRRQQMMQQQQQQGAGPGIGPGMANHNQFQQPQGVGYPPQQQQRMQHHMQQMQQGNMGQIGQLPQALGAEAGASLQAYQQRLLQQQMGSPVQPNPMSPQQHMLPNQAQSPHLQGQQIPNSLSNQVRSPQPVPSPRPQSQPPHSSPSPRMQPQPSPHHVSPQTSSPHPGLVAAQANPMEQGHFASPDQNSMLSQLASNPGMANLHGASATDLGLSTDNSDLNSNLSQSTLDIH

[5] = target: IRAK1 C608 (P51617) (Homo sapiens, UniProt P51617); details: for isoTOP-ABPP reactivity ratio, P51617_C608 / isoTOP-ABPP reactivity profile ratio, P51617_C608: 500 μm
Sequence of IRAK1 C608 (P51617) (P51617 whole entry): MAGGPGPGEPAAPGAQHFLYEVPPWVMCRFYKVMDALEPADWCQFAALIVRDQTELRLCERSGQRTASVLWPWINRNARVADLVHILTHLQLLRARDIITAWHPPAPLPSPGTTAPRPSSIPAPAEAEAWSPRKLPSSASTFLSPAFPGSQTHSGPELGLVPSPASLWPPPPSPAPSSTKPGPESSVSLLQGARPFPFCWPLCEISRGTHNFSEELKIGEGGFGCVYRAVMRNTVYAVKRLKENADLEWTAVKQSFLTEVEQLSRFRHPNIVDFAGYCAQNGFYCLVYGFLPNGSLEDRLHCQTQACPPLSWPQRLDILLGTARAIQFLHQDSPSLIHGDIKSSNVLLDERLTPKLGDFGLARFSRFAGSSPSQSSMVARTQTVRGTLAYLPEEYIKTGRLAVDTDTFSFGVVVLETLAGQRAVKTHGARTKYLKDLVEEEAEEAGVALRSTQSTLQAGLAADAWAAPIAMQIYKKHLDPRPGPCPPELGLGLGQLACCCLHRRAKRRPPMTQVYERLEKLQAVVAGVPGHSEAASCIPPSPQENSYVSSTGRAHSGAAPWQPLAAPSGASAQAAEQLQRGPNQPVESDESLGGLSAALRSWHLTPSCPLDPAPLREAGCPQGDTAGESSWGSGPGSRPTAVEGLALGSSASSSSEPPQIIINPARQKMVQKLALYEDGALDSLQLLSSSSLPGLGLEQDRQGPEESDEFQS

[6] = target: T3, CASP2 C370 (P42575) (Homo sapiens, UniProt P42575)
T3 sequence (P42575 1-452): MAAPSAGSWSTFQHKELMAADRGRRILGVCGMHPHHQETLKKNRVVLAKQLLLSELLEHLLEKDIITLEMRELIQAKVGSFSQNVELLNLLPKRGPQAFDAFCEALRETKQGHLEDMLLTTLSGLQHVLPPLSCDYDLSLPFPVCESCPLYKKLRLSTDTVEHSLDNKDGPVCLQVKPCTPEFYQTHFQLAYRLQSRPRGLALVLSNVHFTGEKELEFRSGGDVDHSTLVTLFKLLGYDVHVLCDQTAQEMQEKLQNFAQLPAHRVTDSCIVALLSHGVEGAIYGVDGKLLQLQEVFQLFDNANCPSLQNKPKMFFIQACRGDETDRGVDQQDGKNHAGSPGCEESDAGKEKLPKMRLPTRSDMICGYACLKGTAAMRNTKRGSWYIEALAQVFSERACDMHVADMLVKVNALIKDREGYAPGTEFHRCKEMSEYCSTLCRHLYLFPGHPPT

N#CC(=Cc1ccc(-c2ccccc2Cl)o1)C(N)=O [compound 42]
isoTOP-ABPP reactivity profile ratio, Q5T1V6_C453 ([1]; in-vitro_ramos): 1.0

O=C(CCl)N1CCC(C(O)(c2ccccc2)c2ccccc2)CC1 [compound 20]
isoTOP-ABPP ratio (reactivity profile), P09086_C346 ([2]; 500 μm in-vitro ramos): 2.3 | isoTOP-ABPP ratio (reactivity profile), Q70CQ2_C741 ([3]; 500 μm in-vitro ramos): 1.7 | isoTOP-ABPP ratio (reactivity profile), Q70CQ2_C741 ([3]; 500 μm in-vitro ramos_231): 2.8 | isoTOP-ABPP ratio (reactivity profile), Q09472_C1738 ([4]; 500 μm in-vitro ramos): 3.2

CC(Br)C(=O)Nc1cc(C(F)(F)F)cc(C(F)(F)F)c1 (centres unmarked) [compound 24]
isoTOP-ABPP ratio (reactivity profile), Q5T1V6_C453 ([1]; 500 μm in-vitro ramos): 1.7 | isoTOP-ABPP ratio (reactivity profile), P09086_C346 ([2]; 500 μm in-vitro ramos): 1.1 | isoTOP-ABPP ratio (reactivity profile), P51617_C608 ([5]; 500 μm in-vitro ramos): 1.3 | isoTOP-ABPP ratio (reactivity profile), P42575_C370 ([6]; 500 μm in-vitro ramos): 2.2

Cc1ccc(C=C(C#N)C(=O)NCCN2CCOCC2)cc1 [compound 41]
isoTOP-ABPP reactivity ratio, P51617_C608 ([5]; in-vitro_ramos_231): 1.1 | isoTOP-ABPP reactivity ratio, P42575_C370 ([6]; 500 μm, in-vitro_ramos): 1.4

COc1cc(NC(=O)CCl)cc(OC)c1 [compound 43]
isoTOP-ABPP reactivity profile ratio, Q5T1V6_C453 ([1]; in-vitro_ramos_231): 20.0 | isoTOP-ABPP reactivity profile ratio, Q09472_C1738 [4]: 2.2

O=C(CCl)NCCc1c[nH]c2ccccc12 [compound 13]
isoTOP-ABPP ratio, Q5T1V6_C453 ([1]; ramos): 1.4 | isoTOP-ABPP ratio, P09086_C346 [2]: 0.6 | isoTOP-ABPP ratio, Q70CQ2_C741 ([3]; 500 μM, invitro, 231): 0.8 | isoTOP-ABPP ratio, Q09472_C1738 ([4]; 500 μM, invitro, ramos): 0.7

CC(C)(C)c1cc(NC(=O)CCl)on1 [compound 32]
isoTOP-ABPP reactivity ratio, P51617_C608 ([5]; in-vitro_ramos): 2.9 | isoTOP-ABPP reactivity ratio, P51617_C608 ([5]; in-vitro_ramos_231): 5.8

O=C(CCl)Nc1ccc(-c2ccccc2)cc1 [compound 52]
isoTOP-ABPP reactivity profile ratio, P51617_C608 ([5]; in-vitro_ramos): 17.6 | isoTOP-ABPP reactivity profile ratio, Q09472_C1738 [4]: 1.1

O=C(CCl)NC12CC3CC(CC(C3)C1)C2 [compound 21]
isoTOP-ABPP ratio (reactivity profile), P09086_C346 ([2]; 500 μm in-vitro ramos_231): 0.9 | isoTOP-ABPP ratio (reactivity profile), Q70CQ2_C741 ([3]; 500 μm in-vitro ramos): 1.7

O=C(CCl)Nc1cccc2ncccc12 [compound 51]
isoTOP-ABPP reactivity profile ratio, Q5T1V6_C453 ([1]; in-vitro_ramos): 1.8 | isoTOP-ABPP reactivity profile ratio, P51617_C608 ([5]; in-vitro_ramos): 1.1 | isoTOP-ABPP reactivity profile ratio, Q70CQ2_C741 ([3]; 500 μm, in-vitro_ramos): 0.9

Cn1cc(S(=O)(=O)N2CCOCC2)cc1C(=O)NC(=O)CCl [compound 11]
isoTOP-ABPP ratio, Q5T1V6_C453 [1]; 231: 20.0 | isoTOP-ABPP ratio, P09086_C346 [2]: 1.7 | isoTOP-ABPP ratio, P51617_C608 ([5]; 500 μM, invitro, ramos): 1.3 | isoTOP-ABPP ratio, P42575_C370 ([6]; 500 μM, invitro, ramos): 6.0

C=CC(=O)Nc1cc(F)c(N2CCN(C(=O)OC(C)(C)C)CC2)c(F)c1 [compound 38]
isoTOP-ABPP reactivity ratio, P51617_C608 ([5]; in-vitro_ramos): 2.4 | isoTOP-ABPP reactivity ratio, Q70CQ2_C741 ([3]; 500 μm, in-vitro_ramos): 4.1

Source: patent publication US10670605B2, “Cysteine reactive probes and uses thereof” (The Scripps Research Institute, priority 2015, dated 2020)
